Reference: a melting point compilation (Tetko et al.; mined from patent text by program, amines drawn as free bases though some values may be those of a salt)

Compound	melting point [°C]
COc1ccc(N)c(C(=O)O)c1OC	71 to 72
CC(C)(C)c1cc(SCc2nc3cccnc3[nH]2)cc(C(C)(C)C)c1O	241 to 242
CN1CCN(c2cccc3c2C[C@H](NC(=O)c2ccc(Br)cc2)CC3)CC1	200 to 201
CCCCC1(N(C)C)CCC(c2[nH]c3ccccc3c2CCC)CC1 (stereo not given)	127 to 130
C=CCc1c(O)ccc2ccc(=O)[nH]c12	207 to 209
Nc1ccc(C23CC2C(=O)NC3=O)cc1 (stereo not given)	183 to 185
Cc1nc2ccccn2c(=O)c1CCN1CC[C@H](Nc2nc3ccccc3n2Cc2ccc(F)cc2)[C@H](C)C1 (relative stereo)	161
COc1ccc(C(OCC2OC(n3cc(C)c(=O)[nH]c3=O)CC2O)(c2ccccc2)c2ccc(OC)cc2)cc1 (stereo not given)	124 to 126
CN1CCN(C(=O)NC(CS)Cc2ccccc2)CC1 (single isomer, unassigned; (-))	68 to 70
O=C(CS(=O)(=O)C(c1ccc(Cl)cc1)c1ccc(Cl)cc1)c1cccs1	150 to 151
O=C1Nc2cccnc2N(C(=O)N2CCCC(CCN3CCCC3)C2)c2cc(Cl)ccc21 (stereo not given)	136 to 139
CC(=O)c1ccc2c(c1)CCCN2C(=O)c1ccc(-c2ccc(Cl)cc2)cc1	149 to 151
NC(=O)C(CCO)N1CCCC1=O (stereo not given)	164 to 165
N#Cc1nn(-c2c(Cl)cc(C(F)(F)F)cc2Cl)cc1C1CC(F)(F)C1	128 to 129
CN1c2ccc(-c3ccc4ccccc4c3)cc2S(=O)(=O)c2cc(-c3ccc4ccccc4c3)ccc21	328 to 332
CCCN(CCC)CCc1ccc(O)c(N)c1	127 to 151
O=Cc1ccn(-c2cc3c(cc2C(F)(F)F)[nH]c(=O)c(=O)n3CC(=O)O)c1	> 250
C[C@]1(CN2CCN(C3CCN(C(=O)OCc4ccc(OC(F)(F)F)cc4)CC3)CC2)Cn2cc([N+](=O)[O-])nc2O1	105 to 106
O=S(=O)(CCl)c1cccc2ccccc12	103 to 105

Compound	melting point [°C]
CC(C)n1c(=O)nc(-c2cc3c(cc2Cl)OCO3)c2cc3c(cc21)OCO3	147 to 150
O=C1CCCc2nc3ccccc3c(NCCc3ccccc3)c21	129 to 132
CC1(C)OCCC(=NO)c2ccccc2NC1=O	205 to 206
CC1(c2ccccc2)OC(C=Cc2ccc(C#N)cc2)=CC1=O (stereo not given)	187 to 188
Cc1ccc(C(c2ccc(C)cc2)N2CCCC2)cc1	61 to 63
CON(c1ccc([N+](=O)[O-])cc1C#N)S(=O)(=O)c1ccc(Cl)c(C(F)(F)F)c1	140 to 142
COC(=O)c1ccc(C=CC(=O)N2CCc3c([nH]c4ccccc34)C2c2ccccc2)cc1 (stereo not given)	222
CC(=O)NC(CO)CCc1ccc(Sc2cccc(OCc3ccccc3)c2)cc1Cl (stereo not given)	78 to 81
CN1Cc2c(C#Cc3ccccc3)ncn2-c2cccc(Cl)c2C1=O	205 to 206
Cc1c(Br)ccc(O)c1C(=O)O	163 to 165
CCCCCC(C)(C)NC(=O)c1nn(-c2ccc(F)cc2F)c2c1C1CCC2C1 (stereo not given)	76 to 78
COC(=O)CCCS(=O)(=O)c1c(Cc2cccc3ccccc23)sc2c1c(=O)n(C)c(=O)n2CC(C)C	122 to 124
Nc1cccc(Nc2nccc(Sc3cccc(Br)c3)n2)c1	109 to 110
CC(=O)c1c2c(c(C)[nH]c1=O)CC(c1ccccn1)CC2 (stereo not given)	254 to 256
COC(=O)c1cc(O)c(O)c(OC)c1	110 to 111
CC(O)(c1ccc(Cl)cc1)c1cc2ccccc2o1 (stereo not given)	64 to 66
COc1cc(OC)nc(C2OC(=O)c3ncccc32)n1 (stereo not given)	167 to 168
CN(C)CCc1cn(Cc2ccccc2)c2ccc(Br)cc12	49 to 50
CN(C)c1ccc(C(=O)N2CCC(c3[nH]nc4c3C(=O)c3c(NC(=O)NN5CCOCC5)cccc3-4)CC2)cc1	189 to 191

Compound	melting point [°C]
COc1ccc2c(Cc3c(Cl)cncc3Cl)nncc2c1C=Cc1ccccc1	180 to 182
CSCC1Cc2cc(C)c3[nH]c(=O)ccc3c2O1 (stereo not given)	203 to 206
S=c1oc2ccccc2o1	151 to 153
FC(F)(F)c1ccc(C(Cl)=NN=Cc2ccccc2)cc1	95 to 96
CC(=O)OCCN(C(=O)CBr)c1ccc(Cl)cc1C(=O)c1ccccc1F	84 to 88
COc1cc(C(=O)n2c3c(c4ccccc42)CC(C(=O)O)CC3)cc(OC)c1OC (stereo not given)	234 to 236
CCCCCC/C=C/[C@@H](O)[C@H](CO)N=[N+]=[N-]	29 to 30
Nn1c(=O)c(=O)[nH]c2c(Br)cc(Br)cc21	273 to 275
CON1CCC(C#N)(OC(=O)Cc2c(C)cc(C)cc2C)CC1	75 to 78
CCCc1noc(-c2ccccc2)c1-c1ccc(S(N)(=O)=O)cc1	167
N#Cc1c(NC2CCCCC2)cccc1-c1ccccc1	125 to 126
CN(c1cc(F)c(C#N)cc1F)c1nnnn1-c1ccc(F)cc1	162
CS(=O)c1ccc2c(c1)OC(C)(C)O2 (stereo not given)	87 to 88
N#Cc1cc(CO)nc(C(=O)Nc2ccc(F)cn2)c1	232
Cc1nn(-c2cc(OS(C)(=O)=O)c(Cl)cc2F)c(C)c1C	123 to 125
O=C1CCOc2c1ccc(O)c2Cc1ccccc1	176
CNC(=O)Nc1snc(N(C)C)c1C#N	240 to 241
CC(C)(C)OC(=O)N1CCCN(c2ccncc2)CC1	124 to 129

The next lines start with the values.

melting point [°C]	Compound
65 to 66	CC(C)(CCCCCC(=O)CCCCCC1(C(=O)O)CC1)C(=O)O
62 to 68	CC(=O)Nc1ccc(C(=O)OCC=CC(C)Oc2ccc(Oc3cnc4cc(Cl)ccc4n3)cc2)cc1 (stereo not given)
259 to 260	O=c1[nH]c(-c2c(F)cccc2F)nn1-c1ccccc1C(F)(F)F
139 to 142	Cc1ccc(C2=NCCN2C(=O)Nc2ccccc2)cc1C
55 to 57	CCOc1cccc2cc(C(=O)c3cc(OC)ccc3OC)oc12
> 300	O=C(O)c1cc(-c2ccccc2S(=O)(=O)Cl)c2ccc3c(-c4ccccc4S(=O)(=O)Cl)cc(C(=O)O)nc3c2n1
159 to 160	CCc1cc2c(c(CC)n1)c(C)c(C)c(=O)n2Cc1ccc(-c2ccccc2-c2nnn(C(c3ccccc3)(c3ccccc3)c3ccccc3)n2)cc1
135 to 137	Cc1ccc(S(=O)(=O)N2CCN(C(=O)c3cc4cc(O)ccc4cc3O)CC2)cc1
80 to 82	Cc1ccccc1Oc1cccc2c1OC(=O)CC2
167 to 168	O=C(Nc1ccc(C(F)(F)F)cc1)C(Cl)=NNc1ccc(Cl)cc1
86 to 89	CN1c2ccc(C=O)cc2CCC1c1ccccc1 (stereo not given)
180 to 181	O=C(O)COc1cccc(-c2c3ccccc3c(Br)c3sc4ccccc4c23)c1
133 to 135	O=C(NCCCCC(NS(=O)(=O)c1ccc2oc3ccccc3c2c1)C(=O)O)OCc1ccccc1 (stereo not given)
235 to 255	O=C1CN2C(=O)C(c3ccccc3)(c3ccccc3)c3cccc(c32)N1
115	COc1ccc([C@]2(c3ccc(F)c(-c4cncnc4)c3)N=C(N)N(C)C2=O)cc1C
103 to 104	CC(C)(C)c1noc(-c2cccc(Cl)n2)n1
147	CCOC(=O)NN=C(CC)c1ccncc1
169	O=Cc1cc2ccc3ccc4ccccc4c3c2o1
138 to 142	CCC12CCC3C4CCC(=O)C=C4CCC3C1CCC2C(C)=O (stereo not given)
123 to 125	CCCCOCCOc1ccc(-c2ccc3c(c2)C=C(C(=O)Nc2ccc(C(O)c4ccccn4)c(OC)c2)CCN3C(=O)C(F)(F)F)cc1 (stereo not given)
183 to 185	O=C(NC(=O)N1CCCCC1)c1cc(Cl)nc(Cl)c1
127 to 137	CCCCC(O)CNCCCCCCCCCCNCC(O)CCCC (stereo not given)

melting point [°C]	Compound
79 to 81	CC(C)(C)c1cccc(CC(O)CO)c1OCc1ccccc1 (stereo not given)
140 to 143	CCCCC(=O)Nc1c(C(=O)c2ccccc2)[nH]c2cc(Cl)ccc12
292	CC(C)n1cc(-c2nc(C(N)=O)c(N)nc2-c2ccc(C#N)cc2)ccc1=O
87 to 88	CC(C)(CC12CC3CC(CC(C3)C1)C2)NC=O
259 to 260	N#Cc1c(-c2cccc(N)c2)cc(-c2ccccc2O)nc1NC(=O)c1ccc(Cl)s1
84 to 85	CC1(C)CCC(C)(C)c2cc(C#CCO)ccc21
82 to 84	CCOC(=O)CCCC(CNC(=O)OC(C)(C)C)c1ccccc1 (stereo not given)
147 to 152	CN(C)C(=O)Nc1ccc(NCc2ccc(Cl)cc2Cl)cc1N
64 to 66	COc1ccccc1C(C)(O)c1ccco1 (stereo not given)
189 to 190	Clc1ccc2c(c1)c(-c1ccccc1)nn1cnnc21
285 to 287	O=C(O)c1ccc(C(=O)NS(=O)(=O)c2ccc(Cl)cc2)cc1
157 to 158	Cc1ccc2c(Cl)cc(Cl)c(OCC#N)c2n1
170 to 173	CC(C)OC(=O)c1cc(-n2c(=O)c3c(n(C)c2=O)OCC3)c(F)cc1Cl
163	COc1c(C)cnc(CS(=O)c2nc3cc(C(F)(F)F)ccc3[nH]2)c1C (stereo not given)
179	COC(=O)c1c(C(=O)OC)c(-c2ccc(OC)c(OC)c2)c2c(O)c(OC)c(OC)cc2c1O
196 to 198	CN1CCN(Cc2ccc(C(=O)Nc3ccc(CO)c(Nc4nccc(-c5cccnc5)n4)c3)cc2)CC1
138 to 140	CC(C)(C)CNc1cc(N2CCNCC2)nc(NCC(C)(C)C)n1
79	O=C(O)CCc1cc2nc(Cl)ccc2n1S(=O)(=O)c1ccc2c(c1)CCN2
249 to 250	CCCCCCCCCCCCc1ccc(S(=O)(=O)Nc2nnc(S(N)(=O)=O)s2)cc1
151 to 152	CC(C)N1CC2(COc3ccc([N+](=O)[O-])cc3OC2)OC1c1ccccc1 (stereo not given)
97	COc1ccc(C2CC[N+]([O-])(CCC3CCOc4ccccc43)CC2)cc1OC (stereo not given)
227 to 229	CC(C)(C)c1cc(-c2nc3n(c2CO)CCS3)cc(C(C)(C)C)c1O
